Values quoted from earlier work in patent US20220213156A1, “Peptides for use in therapy or prophylaxis of Herpesviridae-infections” (priority 2019, published 2022).
Values joined by “and” are separate entries in the source; they are usually repeats but may differ in a detail not shown here. Equal values may be shown once.

Tested on: multidrug resistant CMV isolate (H815-2006)
Details: isolate H815-2006 with UL97 L595S and UL54 V715M; cited from earlier work

Nc1nc(O)c2ncn(COC(CO)CO)c2n1 [GCV, Ganciclovir]
IC50: > 30 µM and 31.5 µM
